Assay results as given in US9434760B2, “Prolinamide derivatives as thrombin inhibitors, preparation method and application thereof” (SHANGHAI INSTITUTE OF PHARMACEUTICAL INDUSTRY, priority 2010, dated 2016).
Where a name gives a salt, the structure may show the parent alone. Read-outs that look alike come from different tables or passages of the source.

Target: T1, lyophilized bovine thrombin standard substance purified from bovine blood (Bos taurus, UniProt P00735)
T1 construct: lyophilized bovine thrombin standard substance purified from bovine blood; from tissue; host or cells: bovine blood
Assay: Test for antithrombin activity (chromogenic substrate S2238)
Assay type: biochemical
Excerpt: Wherein ΔAs represents the rate of change in inhibited absorbance value, and ΔAc represents the rate of change in uninhibited absorbance values.
Wherein h represents Hill coefficient.

[1] = 0.15 U/ml bovine thrombin, incubation for 15 minutes, substrate S2238 (0.075 μM), absorbance at 405 nm during 4 minutes, room temperature, read-out: IC50

Row | IC50 [1] | IC50 | Compound
1 | 561 nM | – | CC(C)C[C@@H](NCC(=O)O)C(=O)N1CCC[C@H]1C(=O)NCc1ccc(C(=N)N)cc1 [Example 24, N-carboxylmethyl-D-leucyl-L-prolyl-[(4-amidinophenyl)methyl]amide hydrochloride]
2 | 12 nM | – | CC(C)C[C@@H](NS(=O)(=O)c1ccccc1)C(=O)N1CCC[C@H]1C(=O)NCc1ccc(C(=N)N)cc1 [Example 19, N-benzenesulfony-D-leucyl-L-prolyl-[(4-amidinophenyl)methyl]amide hydrochloride]
3 | 55 nM | – | CC(C)C[C@@H](NC(=O)c1ccccc1)C(=O)N1CCC[C@H]1C(=O)NCc1ccc(C(=N)N)cc1 [Example 22, N-benzoyl-D-leucyl-L-prolyl-[(4-amidinophenyl)methyl]amide hydrochloride]
4 | 472 nM | – | CC(C)C[C@@H](NC(=O)Cc1ccccc1)C(=O)N1CCC[C@H]1C(=O)NCc1ccc(C(=N)N)cc1 [Example 23, N-phenylacetyl-D-leucyl-L-prolyl-[(4-amidinophenyl)methyl]amide hydrochloride]
5 | 246 nM | – | CC(C)C[C@@H](NS(=O)(=O)Cc1ccccc1)C(=O)N1CCC[C@H]1C(=O)NCc1ccc(C(=N)NC(=O)OCc2ccccc2)cc1 [Example 20]
6 | – | 170 nM | CC(C)C[C@@H](NS(=O)(=O)Cc1ccccc1)C(=O)N1CCC[C@H]1C(=O)NCc1ccc(C(=N)N)cc1 [Example 21, N-benzylsulfony-D-leucyl-L-prolyl-[(4-amidinophenyl)methyl]amide hydrochloride]
7 | – | 69 nM | N=C(N)c1ccc(CNC(=O)[C@@H]2CCN2C(=O)[C@H](NCC(=O)O)C2CCCCC2)cc1 [melagatran, reference compound]
8 | 30 nM | – | CC(C)C[C@@H](NS(=O)(=O)c1ccccc1)C(=O)N1CCC[C@H]1C(=O)NCc1ccc(C(=N)NC(=O)OCc2ccccc2)cc1 [Example 18]

Further lines, the compound ahead of its results:

Row | Compound | IC50 [1] | IC50
9 | N-benzylsulfonyl-D,L-leucyl-L-prolyl-{[4-(N′-hydroxyl) amidinophenyl]methyl}amide acetate [Example 4] | 47 nM | –
10 | CC(C)CC(NC(=O)c1ccccc1)C(=O)N1CCC[C@H]1C(=O)NCc1ccc(C(=N)N)cc1 (mixture of isomers) [Example 6, N-benzoyl-D,L-leucyl-L-prolyl-[(4-amidinophenyl)methyl]amide acetate] | 154 nM | –
11 | N-benzenesulfonyl-D-leucyl-L-prolyl-[1-(aminoiminomethyl)-pyrrol-3-yl]methyl amide hydrochloride [Example 27] | 8 nM | –
12 | CC[C@H](C)[C@H](NC(=O)c1ccccc1)C(=O)N1CCC[C@H]1C(=O)NCc1ccc(C(=N)N)cc1 (mixture of isomers) [Example 12, N-benzoyl-D,L-isoleucyl-L-prolyl-[(4-amidinophenyl)methyl]amide acetate] | 561 nM | –
13 | CC(C)CC(NS(=O)(=O)c1ccccc1)C(=O)N1CCC[C@H]1C(=O)NCc1ccc(C(=N)N)cc1 (stereo partly drawn) [Example 2, N-benzenesulfonyl-D,L-leucyl-L-prolyl-[(4-amidinophenyl)methyl]amide acetate] | – | 115 nM
